# Experiments:
# [1] = test system: Mus musculus; experiment: Tested for antiinflammatory activity on mouse type II collagen arthritis as Paw swelling of all animals in each group on day 37 at intraperitoneal dose of 10 mg/kg; type: functional
# [2] = test system: Mus musculus; experiment: Tested for antiinflammatory activity on mouse type II collagen arthritis as Paw swelling of all animals in each group on day 23 at intraperitoneal dose of 10 mg/kg; type: functional
# [3] = test system: Mus musculus; experiment: Tested for antiinflammatory activity on mouse type II collagen arthritis as Paw swelling of all animals in each group on day 30 at intraperitoneal dose of 10 mg/kg; type: functional
# [4] = test system: Mus musculus; experiment: Incidence of disease (mouse type II collagen) was scored as the percentage of animals within each experimental group that exhibited joint or limb inflammation on day 23 at intraperitoneal dose of 10 mg/kg; type: functional
# [5] = test system: Mus musculus; experiment: Incidence of disease (mouse type II collagen) was scored as the percentage of animals within each experimental group that exhibited joint or limb inflammation on day 44 at intraperitoneal dose of 10 mg/kg; type: functional
# [6] = test system: L1210; experiment: Concentration required to inhibit the growth of L1210 cells.; type: functional, cell-based; details: Mus musculus
# [7] = test system: Mus musculus; experiment: Incidence of disease (mouse type II collagen) was scored as the percentage of animals within each experimental group that exhibited joint or limb inflammation on day 37 at intraperitoneal dose of 10 mg/kg; type: functional
# [8] = test system: Mus musculus; experiment: Tested for antiinflammatory activity on mouse type II collagen arthritis as Paw swelling of all animals in each group on day 44 at intraperitoneal dose of 10 mg/kg; type: functional
# [9] = Concentration required to inhibit the growth of chang liver cells.; type: functional; details: Homo sapiens
# [10] = test system: Mus musculus; experiment: Incidence of disease (mouse type II collagen) was scored as the percentage of animals within each experimental group that exhibited joint or limb inflammation on day 30 at intraperitoneal dose of 10 mg/kg; type: functional
# [11] = test system: Mus musculus; experiment: Tested for antiinflammatory activity on mouse type II collagen arthritis as Paw swelling of all animals in each group on day 30 at intraperitoneal dose of 6 mg/kg; type: functional
# [12] = test system: Mus musculus; experiment: Tested for antiinflammatory activity on mouse type II collagen arthritis as Paw swelling of all animals in each group on day 37 at intraperitoneal dose of 6 mg/kg; type: functional
# [13] = test system: Mus musculus; experiment: Tested for antiinflammatory activity on mouse type II collagen arthritis as Paw swelling of all animals in each group on day 30 at intraperitoneal dose of 12 mg/kg; type: functional
# [14] = test system: Mus musculus; experiment: Incidence of disease (mouse type II collagen) was scored as the percentage of animals within each experimental group that exhibited joint or limb inflammation on day 44 at intraperitoneal dose of 12 mg/kg; type: functional
# [15] = test system: Mus musculus; experiment: Incidence of disease (mouse type II collagen) was scored as the percentage of animals within each experimental group that exhibited joint or limb inflammation on day 44 at intraperitoneal dose of 3 mg/kg; type: functional
# [16] = test system: Mus musculus; experiment: Tested for antiinflammatory activity on mouse type II collagen arthritis as Paw swelling of all animals in each group on day 23 at intraperitoneal dose of 6 mg/kg; type: functional
# [17] = test system: Mus musculus; experiment: Tested for antiinflammatory activity on mouse type II collagen arthritis as Paw swelling of all animals in each group on day 23 at intraperitoneal dose of 3 mg/kg; type: functional
# [18] = test system: Mus musculus; experiment: Incidence of disease (mouse type II collagen) was scored as the percentage of animals within each experimental group that exhibited joint or limb inflammation on day 30 at intraperitoneal dose of 3 mg/kg; type: functional
# [19] = test system: Mus musculus; experiment: Incidence of disease (mouse type II collagen) was scored as the percentage of animals within each experimental group that exhibited joint or limb inflammation on day 23 at intraperitoneal dose of 6 mg/kg; type: functional
# [20] = test system: Mus musculus; experiment: Tested for antiinflammatory activity on mouse type II collagen arthritis as Paw swelling of all animals in each group on day 44 at intraperitoneal dose of 3 mg/kg; type: functional
# [21] = test system: Mus musculus; experiment: Incidence of disease (mouse type II collagen) was scored as the percentage of animals within each experimental group that exhibited joint or limb inflammation on day 37 at intraperitoneal dose of 6 mg/kg; type: functional
# [22] = test system: Mus musculus; experiment: Tested for antiinflammatory activity on mouse type II collagen arthritis as Paw swelling of all animals in each group on day 30 at intraperitoneal dose of 3 mg/kg; type: functional
# [23] = test system: Mus musculus; experiment: Incidence of disease (mouse type II collagen) was scored as the percentage of animals within each experimental group that exhibited joint or limb inflammation on day 23 at intraperitoneal dose of 3 mg/kg; type: functional
# [24] = test system: Mus musculus; experiment: Incidence of disease (mouse type II collagen) was scored as the percentage of animals within each experimental group that exhibited joint or limb inflammation on day 37 at intraperitoneal dose of 3 mg/kg; type: functional
# [25] = test system: Mus musculus; experiment: Tested for antiinflammatory activity on mouse type II collagen arthritis as Paw swelling of all animals in each group on day 37 at intraperitoneal dose of 12 mg/kg; type: functional
# [26] = test system: Mus musculus; experiment: Tested for antiinflammatory activity on mouse type II collagen arthritis as Paw swelling of all animals in each group on day 23 at intraperitoneal dose of 12 mg/kg; type: functional
# [27] = test system: Mus musculus; experiment: Incidence of disease (mouse type II collagen) was scored as the percentage of animals within each experimental group that exhibited joint or limb inflammation on day 30 at intraperitoneal dose of 6 mg/kg; type: functional
# [28] = test system: Mus musculus; experiment: Tested for antiinflammatory activity on mouse type II collagen arthritis as Paw swelling of all animals in each group on day 44 at intraperitoneal dose of 6 mg/kg; type: functional
# [29] = test system: Mus musculus; experiment: Tested for antiinflammatory activity on mouse type II collagen arthritis as Paw swelling of all animals in each group on day 37 at intraperitoneal dose of 3 mg/kg; type: functional
# [30] = test system: Mus musculus; experiment: Incidence of disease (mouse type II collagen) was scored as the percentage of animals within each experimental group that exhibited joint or limb inflammation on day 44 at intraperitoneal dose of 6 mg/kg; type: functional
# [31] = test system: Mus musculus; experiment: Incidence of disease (mouse type II collagen) was scored as the percentage of animals within each experimental group that exhibited joint or limb inflammation on day 30 at intraperitoneal dose of 12 mg/kg; type: functional
# [32] = test system: Mus musculus; experiment: Tested for antiinflammatory activity on mouse type II collagen arthritis as Paw swelling of all animals in each group on day 44 at intraperitoneal dose of 12 mg/kg; type: functional
# [33] = test system: Mus musculus; experiment: Incidence of disease (mouse type II collagen) was scored as the percentage of animals within each experimental group that exhibited joint or limb inflammation on day 23 at intraperitoneal dose of 12 mg/kg; type: functional
# [34] = test system: Mus musculus; experiment: Incidence of disease (mouse type II collagen) was scored as the percentage of animals within each experimental group that exhibited joint or limb inflammation on day 37 at intraperitoneal dose of 12 mg/kg; type: functional
compound,measurement,setting,value
CC(Cc1cnc2nc(N)nc(N)c2c1)c1ccc(C(=O)NC(CCC(=O)O)C(=O)O)cc1 (stereo unspecified),Paw swelling,[1],2.22 mm
same,Paw swelling,[2],2.24 mm
same,Paw swelling,[3],2.23 mm
same,Animals,[4],20%
same,Animals,[5],20%
same,IC50,[6],7.5 nM
same,Animals,[7],20%
same,Paw swelling,[8],2.24 mm
same,IC50,[9],78 nM
same,Animals,[10],0%
C=CCC(Cc1cnc2nc(N)nc(N)c2c1C)c1ccc(C(=O)NC(CCC(=O)O)C(=O)O)cc1 (stereo unspecified),Paw swelling,[11],2.21 mm
same,Paw swelling,[12],2.66 mm
same,Paw swelling,[13],2.24 mm
same,Animals,[14],100%
same,Animals,[15],88%
same,Paw swelling,[16],2.15 mm
same,Paw swelling,[17],2.2 mm
same,IC50,[6],9 nM
same,Animals,[18],38%
same,Animals,[19],0%
same,Paw swelling,[20],2.99 mm
same,Animals,[21],62%
same,Paw swelling,[22],2.24 mm
same,Animals,[23],25%
same,Animals,[24],88%
same,Paw swelling,[25],2.69 mm
same,Paw swelling,[26],2.25 mm
same,Animals,[27],25%
same,Paw swelling,[28],3.01 mm
same,Paw swelling,[29],2.99 mm
same,Animals,[30],100%
same,Animals,[31],38%
same,Paw swelling,[32],3.15 mm
same,IC50,[9],11 nM
same,Animals,[33],50%
same,Animals,[34],75%
C#CCN(Cc1cnc2nc(N)nc(N)c2c1CC)c1ccc(C(=O)NC(CCC(=O)O)C(=O)O)cc1 (stereo unspecified),Paw swelling,[11],2.16 mm
same,Paw swelling,[12],2.21 mm
same,Paw swelling,[13],2.2 mm
same,Animals,[14],25%
same,Animals,[15],25%
same,Paw swelling,[16],2.17 mm
same,Paw swelling,[17],2.13 mm
same,Animals,[18],12%
same,Animals,[19],0%
same,Paw swelling,[20],2.39 mm
same,Animals,[21],25%
same,Paw swelling,[22],2.16 mm
same,Animals,[23],0%
same,Animals,[24],25%
same,Paw swelling,[25],2.23 mm
same,Paw swelling,[26],2.22 mm
same,Animals,[27],12%
same,Paw swelling,[28],2.2 mm
same,Paw swelling,[29],2.24 mm
same,Animals,[30],25%
same,Animals,[31],12%
same,Paw swelling,[32],2.2 mm
same,Animals,[33],12%
same,Animals,[34],25%
Nc1nc(N)c2cc(CCc3ccc(C(=O)NC(CCC(=O)O)C(=O)O)cn3)cnc2n1 (stereo unspecified),Paw swelling,[11],2.39 mm
same,Paw swelling,[12],2.61 mm
same,Paw swelling,[13],2.28 mm
same,Animals,[14],88%
same,Paw swelling,[16],2.12 mm
same,Animals,[19],0%
same,Animals,[21],88%
same,Paw swelling,[25],2.5 mm
same,Paw swelling,[26],2.1 mm
same,Animals,[27],88%
same,Paw swelling,[28],2.86 mm
same,Animals,[30],88%
same,Animals,[31],62%
same,Paw swelling,[32],2.67 mm
same,Animals,[33],0%
same,Animals,[34],88%

# Reference: ChEMBL document CHEMBL1129930, “Analogues of methotrexate in rheumatoid arthritis. 2. Effects of 5-deazaaminopterin, 5,10-dideazaaminopterin, and analogues on type II collagen-induced arthritis in mice” (J Med Chem, 1997)
